The values that follow come from ChEMBL document CHEMBL3397017, “Discovery of a new series of potent prostacyclin receptor agonists with in vivo activity in rat” (Bioorg Med Chem Lett, 2015).

Molecules are shown by their SMILES. Calls of active or inactive are those of the source.

Data set [1] has as its target T1, Prostaglandin D2 receptor (Homo sapiens, UniProt Q13258).
T1 sequence (Q13258 whole entry): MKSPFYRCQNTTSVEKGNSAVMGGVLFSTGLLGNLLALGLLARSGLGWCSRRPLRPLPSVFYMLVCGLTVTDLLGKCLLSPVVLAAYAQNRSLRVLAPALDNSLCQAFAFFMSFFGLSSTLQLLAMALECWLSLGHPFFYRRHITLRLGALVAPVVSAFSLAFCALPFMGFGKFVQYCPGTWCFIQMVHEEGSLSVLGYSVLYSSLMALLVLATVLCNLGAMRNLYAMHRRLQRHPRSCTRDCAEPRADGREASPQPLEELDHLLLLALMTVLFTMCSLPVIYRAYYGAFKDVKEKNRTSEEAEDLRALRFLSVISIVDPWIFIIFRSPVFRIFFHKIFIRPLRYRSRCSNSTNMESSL
As to the kind of experiment: Agonist activity at human recombinant DP1 receptor by melanophore assay.

Data set [2] is described as follows: Half life in sc dosed rat. Type of data set: ADME, organism-based. The note with it: in vivo.
Data set [3] has as its target Prostacyclin receptor (Rattus norvegicus, UniProt P43253). As to the kind of experiment: Agonist activity at rat recombinant IP receptor expressed in CHO-K1 cells incubated for 1 hr by HTRF cAMP assay. Type of data set: functional, cell-based.
The subject of data set [4] is Liver microsome. As to the kind of experiment: Stability in human liver microsomes. Type of data set: ADME. Background: Microsomes from liver hold many membrane-bound enzymes, among them those of drug oxidation.
The species entered for data set [5] is Homo sapiens. As to the kind of experiment: Selectivity index, ratio of EC50 for human recombinant DP1 receptor to EC50 for human recombinant IP receptor.
In data set [6] the target is T2, Prostacyclin receptor (Homo sapiens, UniProt P43119). The experiment in a line: Agonist activity at human recombinant IP receptor expressed in CHO-K1 cells incubated for 1 hr by HTRF cAMP assay. The data set is classed as functional, cell-based. In general terms: Time-resolved FRET reads energy transfer from a long-lived donor to a nearby acceptor.
Data set [7] concerns the target Prostacyclin receptor (Rattus norvegicus) (UniProt P43253). As to the kind of experiment: Intrinsic activity at rat recombinant IP receptor expressed in CHO-K1 cells incubated for 1 hr by HTRF cAMP assay relative to 1 uM iloprost. Type of data set: functional, cell-based.
Data set [8] deals with Rattus norvegicus. As to the kind of experiment: Improvement in right ventricular systolic pressure in rat model of monocrotaline-induced pulmonary arterial hypertension at 10 mg/kg, sc administered twice daily for 21 days. Type of data set: functional, organism-based. More on the design: dose 10 mg/kg. The note with it: Heart right ventricle.
In data set [9] the test system is Rattus norvegicus. As to the kind of experiment: Prevention of right ventricular weight increase in rat model of monocrotaline-induced pulmonary arterial hypertension administered subcutaneously twice daily for 21 days. Type of data set: functional, organism-based. The following applies: Heart right ventricle.
Data set [10] has as its system Liver microsome. As to the kind of experiment: Stability in rat liver microsomes. Type of data set: ADME.
Data set [11] deals with T2, Prostacyclin receptor. As to the kind of experiment: Intrinsic activity at human recombinant IP receptor expressed in CHO-K1 cells incubated for 1 hr by HTRF cAMP assay relative to 1 uM iloprost. Type of data set: functional, cell-based.
The subject of data set [12] is Rattus norvegicus. The experiment in a line: Prevention of right ventricular weight increase in rat model of monocrotaline-induced pulmonary arterial hypertension at 10 mg/kg, sc administered twice daily for 21 days relative to sham animal (reference value: 19 no unit). The data set is classed as functional, Heart right ventricle.
The test system of data set [13] is Rattus norvegicus. The experiment in a line: Prevention of right ventricular weight increase in rat model of monocrotaline-induced pulmonary arterial hypertension at 30 mg/kg, sc administered twice daily for 21 days relative to sham animal (reference value: 19 no unit). The data set is classed as functional, Heart right ventricle.
Data set [14] deals with T1, Prostaglandin D2 receptor. As to the kind of experiment: Agonist activity at human recombinant DP1 receptor expressed in melanophores assessed as induction of pigment redistribution incubated for 90 mins.
Data set [15] concerns Rattus norvegicus. The experiment in a line: Prevention of right ventricular weight increase in rat model of monocrotaline-induced pulmonary arterial hypertension at 1 mg/kg, sc administered twice daily for 21 days relative to sham animal (reference value: 19 no unit). The data set is classed as functional, Heart right ventricle. The following applies: route subcutaneous.

The nature of data set [16]: Oral bioavailability in rat. The data set is classed as ADME, organism-based. The note with it: in vivo.
The nature of data set [17]: Half life in iv dosed rat. The following applies: in vivo. Type of data set: ADME, organism-based.

T2 sequence (P43119 whole entry): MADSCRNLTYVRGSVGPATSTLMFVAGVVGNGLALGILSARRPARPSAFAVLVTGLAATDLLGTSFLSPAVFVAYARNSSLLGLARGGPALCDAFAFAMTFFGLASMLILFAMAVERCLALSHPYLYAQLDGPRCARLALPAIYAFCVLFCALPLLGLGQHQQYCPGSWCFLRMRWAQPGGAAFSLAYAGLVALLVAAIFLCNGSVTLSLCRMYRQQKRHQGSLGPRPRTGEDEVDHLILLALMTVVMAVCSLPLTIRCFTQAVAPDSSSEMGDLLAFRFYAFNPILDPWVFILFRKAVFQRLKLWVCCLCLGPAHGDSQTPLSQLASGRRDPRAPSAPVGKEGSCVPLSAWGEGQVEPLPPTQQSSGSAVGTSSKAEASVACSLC
Prostacyclin receptor (Rattus norvegicus, UniProt P43253), sequence (P43253 whole entry): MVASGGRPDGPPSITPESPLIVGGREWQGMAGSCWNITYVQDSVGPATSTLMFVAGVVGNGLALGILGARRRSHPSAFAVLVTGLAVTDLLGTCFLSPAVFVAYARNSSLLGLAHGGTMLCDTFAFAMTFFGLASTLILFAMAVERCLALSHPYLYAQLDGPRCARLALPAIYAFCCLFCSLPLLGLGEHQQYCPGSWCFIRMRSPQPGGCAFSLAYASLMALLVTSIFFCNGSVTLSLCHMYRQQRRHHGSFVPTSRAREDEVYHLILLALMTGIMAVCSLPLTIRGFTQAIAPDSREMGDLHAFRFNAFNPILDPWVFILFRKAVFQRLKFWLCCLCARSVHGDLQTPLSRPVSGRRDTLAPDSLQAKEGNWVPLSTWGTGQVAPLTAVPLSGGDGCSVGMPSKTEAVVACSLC
Prostacyclin receptor (Rattus norvegicus), sequence (P43253 whole entry): as above

Regarding `O=C(O)COc1cccc2c1CCC(Cn1ncc(-c3cccc(F)c3F)c(-c3ccccc3)c1=O)C2` (racemic), the EC50 – broadly, the concentration needed to bring the measured effect to its halfway point – worked out at 400 nM in data set [1], 110 nM in data set [3], 38 nM in [6] and 36 nM in data set [14]. The half-life (usually the time needed for the level to fall by half in the phase considered) in data set [2] was 2.5 h. For the same molecule, the Stability result in data set [4] and in data set [10] was “Stable” in each case. For the same molecule, the Ratio EC50 in data set [5] stood at 10. For the same molecule, the Intrinsic activity came to 101% in [7] and 87% in data set [11]. For the same molecule, the result in data set [8] was Active. The Activity result in data set [9] was “Dose-dependent effect”. In addition, the “fold change (FC)” value in data set [12] (route subcutaneous) turned out to be 9; in data set [13] (route subcutaneous), 13; in data set [15], 9.

With `O=C(O)COc1cccc2c1CC[C@@H](Cn1ncc(-c3cccc(F)c3F)c(-c3ccc(F)cc3)c1=O)C2` (racemic), the EC50 amounted to 140 nM in data set [1], 200 nM in data set [3], 6 nM in data set [6] and 48 nM in data set [14]. For the same molecule, the bioavailability (usually dose-corrected exposure relative to a reference, in per cent) in data set [16] worked out at 76%. Besides, the Intrinsic activity in data set [7] came to 100%; in data set [11], 98%. Besides, the result in data set [12] (Heart right ventricle) and in [13] (Heart right ventricle) was inactive. For the same molecule, the half-life in data set [17] was 2 h.

For the molecule `COc1cccc(-c2cc(=O)n(CC3CCc4c(cccc4OCC(=O)O)C3)nc2-c2ccccc2)c1` (racemic), the EC50 in [3] amounted to 310 nM; in [6], 60 nM; in [14], 17 nM. Moreover, the Stability entry in [4] and in data set [10] was “Unstable” in each case. Besides, the Intrinsic activity in [7] came to 96%; in data set [11] it was 88%.
